Assay results published in patent US20230128402A1 (The Trustees of Princeton University, priority 2020, published 2023).
Read-outs that look alike come from different tables or passages of the source.

Assays:
[1] = test system: HCT116 cells; test: HCT116 left ventricle injection metastasis xenograft; format: in vivo, mouse; details: 50 mg/kg subcutaneously every day, paclitaxel 25 mg/kg every three days
Procedure: In another xenograft experiment, mice were injected HCT116 cells via left ventricle injection and monitored with BLI on a weekly basis during the experiment. MBE1.5 or vehicle control were injected subcutaneously every day following injection at 50 mg/kg. At day 7 following injection, paclitaxel was dosed at 25 mg/kg every three days for a total of 6 injections. N=10 mice per group.

[2] = test system: HEK293T cells; test: LC-MS metabolite quantification in HEK293T cells; format: cell-based; details: 10 uM, 1 hour
Procedure: HEK293T cells were grown to full confluence and media was exchanged with complete DMEM media supplemented with 10% dialyzed fetal bovine serum. Three replicate plates per group were treated with 10 uM MBE1.5 or control DMSO for 1 hour followed by organic extraction with 40:40:20 methanol:acetonitrile:water w/0.5% formic acid (ice cold). Plates were immediately transferred to ice and incubated for 5 minutes then 50 ul 15% NH4HCO3 was added. Cells lysates were scraped and centrifuged at 15000 RCF. Supernatants were then analyzed via LC-MS to quantify various metabolites using standard metabolomic protocols.

[3] = in vivo; details: male, CD-1/C57BL/6, mouse
[4] = male, CD-1/C57BL/6, mouse, in vivo
[5] = test system: Sum-159-M1a-Aldh 1a3 cells; test: Sum-159-M1a-Aldh1a3 tail-vein lung metastasis xenograft; format: in vivo, mouse; details: 25 mg/kg daily, 12 days, with paclitaxel 12.5 mg/kg every other day
Procedure: In another xenograft experiment, mice were injected with Sum-159-M1a-Aldh 1a3 cells via tail-vein injection, and were randomized following injection. Mice were treated with MBE1.5 (25 mg/kg daily) or vehicle, and paclitaxel (12.5 mg/kg every other day) for twelve days. Lung metastasis progression was tracked by intravital bioluminescence.

[6] = biological target: T1, ALDH1a3 (Mus musculus, UniProt Q9JHW9); test: ALDEFLUOR assay on pancreatic cells from diabetic and lean mice; format: cell-based; details: 10 μM; diabetic vs healthy mice
T1 construct: from tissue; host or cells: pancreatic cells from C57/BL6 mice (diet-induced diabetic and lean)
T1 sequence (Q9JHW9 1-512): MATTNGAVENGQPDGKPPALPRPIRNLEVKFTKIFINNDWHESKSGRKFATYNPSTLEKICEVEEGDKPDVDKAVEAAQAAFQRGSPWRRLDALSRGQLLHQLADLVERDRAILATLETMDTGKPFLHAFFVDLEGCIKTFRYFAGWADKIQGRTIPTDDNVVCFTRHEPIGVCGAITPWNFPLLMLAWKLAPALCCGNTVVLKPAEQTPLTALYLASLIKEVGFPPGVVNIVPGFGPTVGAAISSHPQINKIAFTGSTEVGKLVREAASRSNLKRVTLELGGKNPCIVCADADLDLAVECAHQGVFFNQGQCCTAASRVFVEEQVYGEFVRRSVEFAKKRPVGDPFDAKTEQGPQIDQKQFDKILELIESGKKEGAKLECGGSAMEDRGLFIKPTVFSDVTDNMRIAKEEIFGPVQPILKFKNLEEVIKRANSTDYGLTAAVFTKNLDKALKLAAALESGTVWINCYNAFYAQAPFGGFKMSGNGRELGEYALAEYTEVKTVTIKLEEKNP
Procedure: In the ALDEFLUOR™ assay used in this example, 14 month-old C57/BL6 high fat diet-induced severe obese/diabetic mice and 3 month-old lean C57/B16 mice were euthanized and pancreatic cells were extracted with 1 mg/mL Collagenase 1 digestion in PBS for 1 hour at 37 C. Single cell suspensions were obtained by filtration through 40 μm cell sieves. Cells were washed by two sequential centrifugations and resuspension in PBS.
Cells were counted, centrifuged and resuspended at 1,000,000 cells/mL in ALDEFLUOR™ buffer (Stemcell Technologies). ALDEFLUOR™ substrate (Stemcell Technologies, 1:200) and test compound (MBE 1.5 at 10 μM or 1 mM DEAB were added to cell suspension and incubated at 37° C. for 45 minutes with vortexing every 15 minutes. Cells were centrifuged and resuspended in ALDEFLUOR™ buffer with DAPI at 5 μg/mL. Samples were analyzed with the BD LSR2 flow cytometry platform.
(§1) Gating for background fluorescence was performed using 1 millimolar DEAB as a negative control.

[7] = test system: MDA-MB-468 cells; test: MDA-MB-468 mammary fat pad primary tumor xenograft; format: in vivo, mouse; details: 25 mg/kg daily, 12 days
Procedure: In yet another xenograft experiment, mice were injected with MDA-MB-468 cells via mammary fat pad, and were randomized following injection. […] Primary tumor measurements were taken by caliper between each treatment group.

[8] = biological target: T2, ALDH1a3 (Homo sapiens, UniProt P47895); test: ALDEFLUOR assay in SUM159-M1a-Aldh1a3 cells; format: cell-based; design: lentiviral vectors containing either the vector backbone or full-length human Aldh1a3; expressed in transfected cells; host or cells: SUM159-M1a human breast cancer cells, lentiviral pLex vector; details: for inhibition of ALDH1a3 activity (percentage of ALDEFLUOR-positive cells): 100 nM, FIG. 6A; for inhibitory activity detected at concentrations as low as: SUM 159-M1a-Aldh1a3 cells, FIG. 6B
T2 sequence (P47895 1-512): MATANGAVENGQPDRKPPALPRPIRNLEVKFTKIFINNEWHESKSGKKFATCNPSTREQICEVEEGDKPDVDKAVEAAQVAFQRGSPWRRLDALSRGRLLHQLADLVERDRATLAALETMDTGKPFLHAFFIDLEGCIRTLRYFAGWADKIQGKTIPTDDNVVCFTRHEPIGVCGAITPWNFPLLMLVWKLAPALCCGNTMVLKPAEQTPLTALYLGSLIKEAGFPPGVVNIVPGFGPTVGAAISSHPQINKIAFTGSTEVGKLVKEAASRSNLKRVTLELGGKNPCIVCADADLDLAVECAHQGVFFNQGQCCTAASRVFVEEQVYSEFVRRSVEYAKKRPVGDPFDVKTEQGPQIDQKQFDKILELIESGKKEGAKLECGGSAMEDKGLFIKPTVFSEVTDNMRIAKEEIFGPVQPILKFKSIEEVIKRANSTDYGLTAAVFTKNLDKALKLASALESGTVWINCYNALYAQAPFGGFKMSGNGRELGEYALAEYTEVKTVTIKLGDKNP
Procedure: Cells were counted, centrifuged and resuspended at 1,000,000 cells/mL in ALDEFLUOR™ buffer (Stemcell Technologies). ALDEFLUOR™ substrate (Stemcell Technologies, 1:200) and test compound or 1 mM DEAB were added to cell suspension and incubated at 37° C. for 45 minutes with vortexing every 15 minutes. Cells were centrifuged and resuspended in ALDEFLUOR™ buffer with DAPI at 5 μg/mL. Samples were analyzed with the BD LSR2 flow cytometry platform. Gating was performed using DEAB as a negative control.
as §1
The [inh-min]threshold was set at the lower bound of two standard deviations of control samples, while the IC50 threshold was set at 50% of the average of control samples.
An ALDEFLUOR™ assay was also used to assess the relative activity of several compounds described herein against SUM159-M1a-Aldh1a3 cells.

[9] = test system: SUM 159-M1-p44 cells; test: SUM 159-M1-p44 tail-vein lung metastasis xenograft; format: in vivo, mouse; details: 50 mg/kg with 25 mg/kg paclitaxel on days 17, 19 and 21
Procedure: In another xenograft experiment, mice were injected with SUM 159-M1-p44 cells via tail-vein injection, as described above, and randomized following injection. Metastatic burden was imaged on day 16 via intravital imaging. Mice were then treated with paclitaxel (25 mg/kg) and either vehicle or MBE1.5 (50 mg/kg) on days 17, 19 and 21. Lung metastatic burden was then imaged on day 22. Signals were normalized to day 16.

[10] = Fast and refeed insulin secretion in db/db mice; format: in vivo, mouse; details: 40 mg per kg oral gavage once per day, 14 days
Procedure: C57/Bl6 mice homozygous for the spontaneous mutation (Lepr^db, referred to as db/db) that develop severe obesity and Type 2 Diabetes within 12 weeks were raised through standard husbandry practice and we separated into two groups followed by acclimatization for 9 days in single housing.
Daily food intake and body mass were monitored each day and baseline levels of plasma insulin and glucose were monitored to confirm identical group characteristics.
Compound MBE1 was dissolved to 200 mg/mL in DMSO followed by suspension into a 0.5% methycellulose, 0.5% Tween-80 solution. Mice were treated via oral gavage once per day to achieve 40 mg per kg body mass MBE1 or were treated with vehicle control. Mouse body mass and food consumption were monitored daily over 14 days.
At Day 14, food was removed from mouse cages for 16 hours, and then food was reintroduced. Plasma insulin levels were assayed by ELISA at baseline and at 1 hour, 2 hour and 4 hours following provision of chow and ad libitum feeding.

[11] = test system: SUM 159-M1a cells; test: SUM 159-M1a xenograft metastasis, tail vein or intracardiac injection; format: in vivo, mouse; details: IP in conjunction with paclitaxel; FIGS. 9B and 10B
Procedure: All xenograft experiments were conducted on 8-week old female mice (athymic Nu/Nu, or NOD/SCID Gamma). Xenograft experiments were conducted using 125,000 SUM 159-M1a cells in 100 μL PBS for tail vein or intracardiac injection. Mice were randomized following injection. Bioluminescent imaging (BLI) was conducted using the IVIS 200 system and retroorbital luciferin injection. For drug treatment, MBE1 was given to mice via IP injection in conjunction with paclitaxel (5 mg/mL in 10% ethanol, 10% Kolliphor EL, 80% PBS) at the time intervals and dosages indicated in FIG. 9A (tail vein injection) and FIG. 10A (intracardiac injection).

[12] = Toxicity experiments in C57Bl6 mice; format: in vivo, mouse; details: IP, ascending 12.5 to 200 mg/kg at 24h intervals; 25 mg/kg every 3 days for 18 days
Procedure: All mice were originally ordered from the Jackson Laboratory (Bar Harbor, Me.) and breeding was conducted in a specific pathogen-free (SPF) barrier facility. Toxicity experiments were performed on 8-12-week old male and female C57Bl6 mice. MBE1 was dissolved at 50 mg/mL in DMSO followed by a […] into Kolliphor EL, followed by a 1:5 dilution into PBS to yield a 5 mg/ml MBE1 solution, (10% DMSO, 10% Kolliphor EL, 80% PBS). This was administered via IP injection at ascending doses from 12.5 to 200 mg/kg body mass in a set of 3 mice at 24h intervals. Body condition score, food uptake, fecal/urine production, behavior and body weight were measured as toxicity readouts. Five mice were then treated every 3 days with 25 mg/kg MBE1 for 18 days.

[13] = test system: SUM 159-M1a cells; details: shown in PCT/US2019/044278; cited from earlier work
[14] = Pharmacokinetic profiling in mice
[15] = with paclitaxel 12.5 mg/kg every other day
[16] = SUM159-M1a-Aldh1a3 cells, compound at 100 nM

CCc1ccccc1C(=O)Nc1cc2c(cc1F)NC(=O)CC2 [Compound 4, 2-ethyl-N-(7-fluoro-2-oxo-3,4-dihydro-1H-quinolin-6-yl)benzamide]
colorectal cancer metastasis (BLI) [1]: slows colorectal cancer metastasis | NADH (LC-MS) [2]: depletion of NADH | adipate semialdehyde (LC-MS) [2]: increases in adipate semialdehyde | bioavailability [3]: 62.5% | half-life ([3]; iv, 1 mg/kg): 1.22 h | half-life ([3]; po, 10 mg/kg): 1.7 h | time plasma concentrations exceed 5-fold the IC50 [4]: > 10 h | survival [5]: extended survival in mice with late-stage established breast cancer lung metastasis | percentage of ALDEFLUOR-positive pancreatic islet cells [6]: high-affinity compound for the inhibition of ALDH1a3 activity | tumors completely eliminated ([7]; n=6, with paclitaxel): tumors of two mice in the MBE1.5 treatment group were completely eliminated | gross toxicity (body mass) [7, 15]: no gross toxicity | primary tumor volume [7, 15]: caused regression of primary breast tumors | inhibition of ALDH1a3 activity (percentage of ALDEFLUOR-positive cells) [8]: high-affinity compounds for the inhibition of ALDH1a3 activity | inhibitory activity detected at concentrations as low as [8]: 2 nM | lung metastatic burden (BLI) [9]: caused regression of established metastatic disease

CCc1cnccc1C(=O)Nc1cc2c(cc1F)NC(=O)CC2 [Compound 1, 3-ethyl-N-(7-fluoro-2-oxo-3,4-dihydro-1H-quinolin-6-yl)pyridine-4-carboxamide]
plasma insulin after fast and refeed challenge (ELISA) [10]: effectively improve insulin secretion | lung and bone metastasis (BLI) [11]: effective therapeutic to treat established metastatic disease | acute or chronic toxicity [12]: Neither experiment showed any indication of either acute or chronic toxicity | metastatic lesions in mice [13]: shrink metastatic lesions in mice without toxicity | cage side observations, adverse reactions ([14]; 10 mg/kg oral gavage or 1 mg/kg intravenous, 0 hours to 24 hours post-dosing): no adverse reactions | half-life ([14]; male, CD-1/C57BL/6, mouse, plasma, iv, 1 mg/kg): 1.79 h | bioavailability ([14]; male, CD-1/C57BL/6, mouse, plasma, oral, 10 mg/kg): 88% | half-life ([14]; male, CD-1/C57BL/6, mouse, plasma, po, 10 mg/kg): 1.37 h | time plasma concentrations exceed 5-fold the IC50 ([14]; mice, oral gavage (PO) and intravenous (IV)): > 10 h | inhibition of ALDH1a3 activity (percentage of ALDEFLUOR-positive cells) [8]: high-affinity compounds for the inhibition of ALDH1a3 activity | inhibitory activity detected at concentrations as low as [8]: 2 nM | Inhi-bitory Activity at 100 nM (%) [8, 16]: 99% | Percent of Cells Positive for ALDEFLUOR ™ at 100 nM [8, 16]: 0.73%
